Reference: publication PMC9268515, “UGT1A1 and UGT1A9 Are Responsible for Phase II Metabolism of Tectorigenin and Irigenin In Vitro” (Molecules, 2022)

Legend:
UGT2B4 = target: T1, UGT2B4 (Homo sapiens, UniProt P06133); test: Recombinant UGT reaction screening, UGT2B4; type: in vitro ADME
T1 construct: purchased BD Biosciences (Woburn, MA, USA)
T1 sequence (P06133 24-528): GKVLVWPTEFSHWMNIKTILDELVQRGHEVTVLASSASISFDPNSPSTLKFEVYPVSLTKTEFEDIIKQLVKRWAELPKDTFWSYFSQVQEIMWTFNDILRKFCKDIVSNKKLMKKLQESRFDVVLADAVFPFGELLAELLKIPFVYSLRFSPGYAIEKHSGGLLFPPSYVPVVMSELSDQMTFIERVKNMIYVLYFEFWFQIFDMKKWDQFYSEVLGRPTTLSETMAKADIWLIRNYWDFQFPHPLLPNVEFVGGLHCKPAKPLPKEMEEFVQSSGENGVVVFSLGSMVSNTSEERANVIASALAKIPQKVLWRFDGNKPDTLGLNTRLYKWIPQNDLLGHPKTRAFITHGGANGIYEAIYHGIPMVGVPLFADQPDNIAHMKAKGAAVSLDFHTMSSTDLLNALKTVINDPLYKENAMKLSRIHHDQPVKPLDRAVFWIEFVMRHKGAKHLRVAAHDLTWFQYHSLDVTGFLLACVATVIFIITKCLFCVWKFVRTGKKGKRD
Procedure: (§1) UGT reaction screening of tectorigenin and irigenin was conducted using nine commercially available human UGTs (UGT1A1/1A3/1A4/1A6/1A9/2B4/2B7/2B15/2B17). Furthermore, we studied the enzymatic kinetic characteristics of tectorigenin and irigenin using UGT1A1 and UGT1A9. Six concentrations of tectorigenin and irigenin (1, 3, 10, 30, 100, and 300 μM) were incubated in triplicate in order to obtain the enzyme kinetic characteristics of tectorigenin and irigenin glucuronide.

UGT2B17 = target: T2, UGT2B17 (Homo sapiens, UniProt O75795); test: Recombinant UGT reaction screening, UGT2B17; type: in vitro ADME
T2 construct: purchased BD Biosciences (Woburn, MA, USA)
T2 sequence (O75795 24-530): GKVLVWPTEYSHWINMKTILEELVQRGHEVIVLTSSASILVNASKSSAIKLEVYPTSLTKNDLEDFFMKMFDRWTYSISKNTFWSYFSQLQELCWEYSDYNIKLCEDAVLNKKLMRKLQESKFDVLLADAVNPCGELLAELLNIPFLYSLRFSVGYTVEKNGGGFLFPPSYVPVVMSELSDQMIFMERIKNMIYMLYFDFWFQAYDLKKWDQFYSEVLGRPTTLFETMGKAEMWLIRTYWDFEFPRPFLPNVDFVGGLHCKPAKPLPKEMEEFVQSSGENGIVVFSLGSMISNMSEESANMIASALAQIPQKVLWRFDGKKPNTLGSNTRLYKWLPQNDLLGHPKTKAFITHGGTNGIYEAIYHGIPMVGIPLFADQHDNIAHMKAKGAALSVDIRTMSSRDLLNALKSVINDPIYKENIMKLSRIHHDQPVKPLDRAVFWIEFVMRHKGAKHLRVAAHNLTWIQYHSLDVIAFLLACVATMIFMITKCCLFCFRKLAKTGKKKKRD
Procedure: as §1

UGT1A4 = target: T3, UGT1A4 (Homo sapiens, UniProt P22310); test: Recombinant UGT reaction screening, UGT1A4; type: in vitro ADME
T3 construct: purchased BD Biosciences (Woburn, MA, USA)
T3 sequence (P22310 29-534): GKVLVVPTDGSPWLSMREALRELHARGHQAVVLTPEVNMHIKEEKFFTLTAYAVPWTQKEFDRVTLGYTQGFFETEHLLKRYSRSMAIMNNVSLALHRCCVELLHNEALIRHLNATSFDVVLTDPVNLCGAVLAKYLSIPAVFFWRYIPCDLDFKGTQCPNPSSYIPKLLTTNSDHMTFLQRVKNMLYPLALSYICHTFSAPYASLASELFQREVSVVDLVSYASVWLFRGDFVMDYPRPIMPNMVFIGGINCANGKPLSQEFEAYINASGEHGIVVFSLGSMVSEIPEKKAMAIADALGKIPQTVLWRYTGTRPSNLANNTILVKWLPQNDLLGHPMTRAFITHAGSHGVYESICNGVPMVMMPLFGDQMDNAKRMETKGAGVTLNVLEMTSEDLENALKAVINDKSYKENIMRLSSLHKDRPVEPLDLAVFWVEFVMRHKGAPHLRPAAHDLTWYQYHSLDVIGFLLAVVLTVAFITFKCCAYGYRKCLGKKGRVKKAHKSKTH
Procedure: as §1

[1] = Stability experiment under different storage conditions; type: physicochemical; conditions: autosampler 12 h at 4 °C
Procedure: In the stability experiment, we evaluated the stability of tectorigenin and irigenin, as well as their metabolites, under different conditions. […] Metabolites (M, M1, and M2) were stable in the inactivated metabolic system for 2 h (held constant at approximately 25 °C) and after storage for 7 days (−80 °C), as well as in the pretreated samples placed in the autosampler for 12 h at 4 °C.

[2] = test system: pooled human liver microsomes (HLMs); test: Glucuronidation kinetics of tectorigenin and irigenin in HLMs; type: in vitro ADME; conditions: tectorigenin glucuronidation in HLMs, metabolite M
Procedure: To obtain suitable incubation conditions, we first evaluated the linearity of metabolite formation at different times (10–60 min), the UDPGA concentrations (0.5–5 mM), and the microsome protein concentrations in HLMs (0.2–2 mg/mL). The final incubation medium used in the experiment contained MgCl2 (10 mM), microsomes (0.5 mg/mL), 1,4-lactone monohydrate (5 mM), alamethicin ([…]), UDPGA (1 mM), and different concentrations of tectorigenin or irigenin (1–300 μM) in Tris-HCl buffer (50 mM, pH 7.4). The mixture was incubated at 37 °C for 30 min; then, the reaction was stopped by adding ice-cold methanol. After the mixtures were centrifuged (17,000 rpm, 10 min), and the supernatant was analyzed by HPLC. Michaelis–Menten parameters (Vmax and Km) were determined on the basis of the nonlinear regression of the plot of the substrate concentration vs. rate of metabolite formation.
For both HLMs and UGTs, metabolic kinetic analysis was performed by fitting the data to the Michaelis-Menten model. The Km and Vmax of enzymes were calculated as follows:(3) V=Vmax×[S]/Km+[S], where [S] is the substrate concentration. All results were shown as the mean ± standard error (SE). Differences among different groups were compared using one-way analysis of variance. A p-value < 0.05 was considered statistically significant.

## COc1c(O)cc2occ(-c3ccc(O)cc3)c(=O)c2c1O [Tectorigenin, 5,7,4′-trihydroxyl-6-methoxyl isoflavone]
UGT2B4
  Activity in glucuronidation of tectorigenin: none
UGT2B17
  Activity in glucuronidation of tectorigenin: none
UGT1A4
  Activity in glucuronidation of tectorigenin: some activity
[1]
  Stability in pretreated samples in the autosampler: stable
[1]; printed as below ±5%
  RE and RSD values in pretreated samples in the autosampler: < 5%
[2]
  Vmax for M formation: 5.87 ± 0.25 nmol/min/mg
[2]; read-out: Km for M formation
  Km: 32.8 ± 4.79 µM
